Converted amounts (≈) assume the structure as drawn. Numbered stars: 1 amine (or outer) side, 2 acyl side, 3 side chain; on linkers, the order of the positions; unused ones are H or OH. Square brackets hold non-standard residues; d marks the D form. Peptide text beside a SMILES is read from it. * marks the point of attachment. Adamantane1carbonyl = O=C(C12CC3CC(CC(C3)C1)C2)*; X13 = O=C([C@H](Cc1nc2ccc(F)cc2s1)N[*:1])[*:2]; X14 = COc1ccc(C[C@H](N[*:1])C(=O)[*:2])cc1Cl; NH((S)CH(Me)CH2NMe2) = C[C@@H](CN(C)C)N*; NH(1-CH2NMe2-cBu) = CN(C)CC1(N*)CCC1; dGly(nOct) = CCCCCCCC[C@@H](N)C(=O)O; Gly(octyl) = CCCCCCCC[C@H](N)C(=O)O; Oxazole4CO(2-Me) = Cc1nc(C(=O)*)co1; Benzoyl(4-F) = O=C(c1ccc(F)cc1)*; hCha = N[C@@H](CCC1CCCCC1)C(=O)O; X6 = O=C(c1ccnc2cc(Cl)ccc12)*; X5 = O=C(C1CCc2ccccc2C1)*; NHCH2CH2NHMe = CNCCN*; Aib = CC(C)(N)C(=O)O; X1 = COCCN(CCN*)CCOC; βAla = NCCC(=O)O
Key:
[1] = tested on: Staphylococcus aureus ATCC 43300, MRSA; type: cell-based; details: ATCC 43300, 18 h
Method: The antibacterial activity of inventive compounds was evaluated in duplicate in a further Minimum Inhibitory Concentration (MIC) assay.
Bacteria were cultured in Cation-adjusted Mueller Hinton broth (CAMHB) at 37° C. overnight. A sample of each culture was then diluted 40-fold in fresh broth and incubated at 37° C. for 1.5-3 h. The resultant mid-log phase cultures were diluted (CFU/mL measured by OD600), then added to each well of the compound containing plates, giving a cell density of 5×10^5 CFU/mL and a total volume of 50 μL. All the plates were covered and incubated at 37° C. for 18 h without shaking.
Samples were prepared in DMSO and serially diluted 2 fold 8 times. Each sample concentration was prepared in 384-well plates, non-binding surface plate (NBS; Corning 3640) for the bacterial strain ATCC 43300, MRSA. The final DMSO concentration was at a maximum of 0.5%.
Inhibition of bacterial growth was determined measuring absorbance at 600 nm (OD600), using a Tecan M1000 Pro monochromator plate reader. The percentage of growth inhibition was calculated for each well, using the negative control (media only) and positive control (bacteria without inhibitors) on the same plate as references. […] Vancomycin was used as positive bacterial inhibitor standards.

[2] = tested on: axenic Leishmania donovani MHOM-ET-67/L82 amastigotes; assay: In vitro antiprotozoal assay, axenic amastigotes; type: cell-based; details: axenic amastigotes; read-out: L.don.ax. IC50
Method: (§1) The testing of the inventive compounds against Leishmania donovani (strain MHOM/ET/67/L82) was performed in 96 well plates at concentrations in serial dilutions. Tests were done in triplicate.

[3] = Cytotoxicity assay (Alamar Blue) on L6-cells; type: cell-based, rat; details: rat
Method: Tests were done in triplicate.
The plates were incubated for additional 2 h.

[4] = tested on: intracellular Leishmania donovani MHOM-ET-67/L82 amastigotes; assay: In vitro antiprotozoal assay, intracellular amastigotes; type: cell-based; details: intracellular amastigotes; read-out: L.don.InMac IC50
Method: as §1

[5] = tested on: Staphylococcus aureus ATCC BAA-1556, USA300 MRSA; assay: microbe, parasite or virus in culture; type: cell-based; details: ATCC BAA-1556
Method: Pre-formulated compound solution was diluted in 100% DMSO to prepare a 1.6 mg/mL working stock solution. […] The concentration range was 0.032 to 32 μg/mL.

SMILES	MIC [1]	MIC [5]	IC50 [2]	IC50 at 68 h [3]	IC50 [4]
CC(C)C[C@H](NC(=O)[C@H](Cc1nc2ccc(F)cc2s1)NC(=O)[C@@H]1CCCN1C(=O)c1ccc(F)cc1)C(=O)NC(C)(C)C(=O)N[C@@H](CC(C)C)C(=O)N[C@@H](CC(C)C)C(=O)NC(C)(C)C(=O)NC(C)(C)C(=O)NCCC(=O)NC1(CN(C)C)CCC1 [Compound 7848, (2S)-N-(1-{[(1S)-1-{[(1S)-1-({1-[(1-{[2-({1-[(dimethylamino)methyl]cyclobutyl}carbamoyl)ethyl]carbamoyl}-1-methylethyl)carbamoyl]-1-methylethyl}carbamoyl)-3-methylbutyl]carbamoyl}-3-methylbutyl]carbamoyl}-1-methylethyl)-2-[(2S)-3-(6-fluoro-1,3-benzothiazol-2-yl)-2-{[(2S)-1-(4-fluorobenzoyl)pyrrolidin-2-yl]formamido}propanamido]-4-methylpentanamide] ({Benzoyl(4-F)}-P[X13]L[Aib]LL[Aib][Aib][βAla]-{NH(1-CH2NMe2-cBu)})	4 µg/mL (≈ 3.24 µM)	–	–	–	–
CCCCCCCC[C@H](NC(=O)[C@@H]1CCCN1C(=O)c1ccnc2cc(Cl)ccc12)C(=O)N[C@@H](CC(C)C)C(=O)NC(C)(C)C(=O)N[C@@H](CC(C)C)C(=O)N[C@@H](CC(C)C)C(=O)NC(C)(C)C(=O)NC(C)(C)C(=O)NCCC(=O)N[C@@H](C)CN(C)C [Compound 5768, (2S)-2-{[(2S)-1-(7-chloroquinoline-4-carbonyl)pyrrolidin-2-yl]formamido}-N-[(1S)-1-[(1-{[(1S)-1-{[(1S)-1-{[1-({1-[(2-{[(2S)-1-(dimethylamino)propan-2-yl]carbamoyl}ethyl)carbamoyl]-1-methylethyl}carbamoyl)-1-methylethyl]carbamoyl}-3-methylbutyl]carbamoyl}-3-methylbutyl]carbamoyl}-1-methylethyl)carbamoyl]-3-methylbutyl]decanamide] (X6-P[Gly(octyl)]L[Aib]LL[Aib][Aib][βAla]-{NH((S)CH(Me)CH2NMe2)})	–	–	33.5 nM	627 nM	257 nM
CCCCCCCC[C@H](NC(=O)[C@@H]1CCCN1C(=O)C1CCc2ccccc2C1)C(=O)N[C@@H](CC(C)C)C(=O)NC(C)(C)C(=O)N[C@@H](CC(C)C)C(=O)N[C@@H](CC(C)C)C(=O)NC(C)(C)C(=O)NC(C)(C)C(=O)NCCC(=O)N[C@@H](C)CN(C)C (stereo partly drawn) [Compound 5910, (2S)—N-[(1S)-1-[(1-{[(1S)-1-{[(1S)-1-{[1-({1-[(2-{[(2S)-1-(dimethylamino)propan-2-yl]carbamoyl}ethyl)carbamoyl]-1-methylethyl}carbamoyl)-1-methylethyl]carbamoyl}-3-methylbutyl]carbamoyl}-3-methylbutyl]carbamoyl}-1-methylethyl)carbamoyl]-3-methylbutyl]-2-{[(2S)-1-(1,2,3,4-tetrahydronaphthalene-2-carbonyl)pyrrolidin-2-yl]formamido}decanamide] (X5-P[Gly(octyl)]L[Aib]LL[Aib][Aib][βAla]-{NH((S)CH(Me)CH2NMe2)})	–	–	2.1 nM	230 nM	6.7 nM
CCCCCCCC[C@H](NC(=O)[C@@H]1CCCN1C(=O)c1coc(C)n1)C(=O)N[C@@H](CC(C)C)C(=O)NC(C)(C)C(=O)N[C@@H](CC(C)C)C(=O)N[C@@H](CC(C)C)C(=O)NC(C)(C)C(=O)NC(C)(C)C(=O)NCCC(=O)N[C@@H](C)CN(C)C [Compound 5905, (2S)-N-[(1S)-1-[(1-{[(1S)-1-{[(1S)-1-{[1-({1-[(2-{[(2S)-1-(dimethylamino)propan-2-yl]carbamoyl}ethyl)carbamoyl]-1-methylethyl}carbamoyl)-1-methylethyl]carbamoyl}-3-methylbutyl]carbamoyl}-3-methylbutyl]carbamoyl}-1-methylethyl)carbamoyl]-3-methylbutyl]-2-{[(2S)-1-(2-methyl-1,3-oxazole-4-carbonyl)pyrrolidin-2-yl]formamido}decanamide] ({Oxazole4CO(2-Me)}-P[Gly(octyl)]L[Aib]LL[Aib][Aib][βAla]-{NH((S)CH(Me)CH2NMe2)})	–	–	7.9 nM	852 nM	13.1 nM
CCCCCCCC[C@H](NC(=O)[C@@H]1CCCN1C(=O)C12CC3CC(CC(C3)C1)C2)C(=O)N[C@@H](CC(C)C)C(=O)NC(C)(C)C(=O)N[C@@H](CC(C)C)C(=O)N[C@@H](CC(C)C)C(=O)NC(C)(C)C(=O)NC(C)(C)C(=O)NCCC(=O)N[C@@H](C)CN(C)C [Compound 5770, (2S)-2-{[(2S)-1-(adamantane-1-carbonyl)pyrrolidin-2-yl]formamido}-N-[(1S)-1-[(1-{[(1S)-1-{[(1S)-1-{[1-({1-[(2-{[(2S)-1-(dimethylamino)propan-2-yl]carbamoyl}ethyl)carbamoyl]-1-methylethyl}carbamoyl)-1-methylethyl]carbamoyl}-3-methylbutyl]carbamoyl}-3-methylbutyl]carbamoyl}-1-methylethyl)carbamoyl]-3-methylbutyl]decanamide] (Adamantane1carbonyl-P[Gly(octyl)]L[Aib]LL[Aib][Aib][βAla]-{NH((S)CH(Me)CH2NMe2)})	–	–	1 nM	185 nM	338 nM

Continued, in another order:

MIC [1]	MIC [5]	SMILES	IC50 [2]	IC50 at 68 h [3]	IC50 [4]
4 µg/mL (≈ 3.27 µM)	–	COc1ccc(C[C@H](NC(=O)[C@@H]2CCCN2C(=O)c2ccc(F)cc2)C(=O)N[C@@H](CC(C)C)C(=O)NC(C)(C)C(=O)N[C@@H](CC(C)C)C(=O)N[C@@H](CC(C)C)C(=O)NC(C)(C)C(=O)NC(C)(C)C(=O)NCCC(=O)NC2(CN(C)C)CCC2)cc1Cl [Compound 7846, (2S)-2-[(2S)-3-(3-chloro-4-methoxyphenyl)-2-{[(2S)-1-(4-fluorobenzoyl)pyrrolidin-2-yl]formamido}propanamido]-N-(1-{[(1S)-1-{[(1S)-1-({1-[(1-{[2-({1-[(dimethylamino)methyl]cyclobutyl}carbamoyl)ethyl]carbamoyl}-1-methylethyl)carbamoyl]-1-methylethyl}carbamoyl)-3-methylbutyl]carbamoyl}-3-methylbutyl]carbamoyl}-1-methylethyl)-4-methylpentanamide] ({Benzoyl(4-F)}-P[X14]L[Aib]LL[Aib][Aib][βAla]-{NH(1-CH2NMe2-cBu)})	–	–	–
–	4 µg/mL (≈ 3.59 µM)	CCCCCCCC[C@H](NC(=O)[C@@H]1CCCN1C(=O)c1coc(C)n1)C(=O)N[C@@H](CC(C)C)C(=O)NC(C)(C)C(=O)N[C@@H](CC(C)C)C(=O)N[C@@H](CC(C)C)C(=O)NC(C)(C)C(=O)NC(C)(C)C(=O)NCCC(=O)NCCNC [Compound 7058, (2S)-2-{[(2S)-1-(2-methyl-1,3-oxazole-4-carbonyl)pyrrolidin-2-yl]formamido}-N-[(1S)-3-methyl-1-[(1-methyl-1-{[(1S)-3-methyl-1-{[(1S)-3-methyl-1-{[1-methyl-1-({1-methyl-1-[(2-{[2-(methylamino)ethyl]carbamoyl}ethyl)carbamoyl]ethyl}carbamoyl)ethyl]carbamoyl}butyl]carbamoyl}butyl]carbamoyl}ethyl)carbamoyl]butyl]decanamide] ({Oxazole4CO(2-Me)}-P[Gly(octyl)]L[Aib]LL[Aib][Aib][βAla]-NHCH2CH2NHMe)	23.8 nM	5040 nM	2620 nM
–	16 µg/mL (≈ 13.7 µM)	CCCCCCCC[C@@H](NC(=O)[C@@H]1CCCN1C(=O)c1coc(C)n1)C(=O)N[C@@H](CC(C)C)C(=O)NC(C)(C)C(=O)N[C@@H](CC(C)C)C(=O)N[C@@H](CC(C)C)C(=O)NC(C)(C)C(=O)NC(C)(C)C(=O)NCCC(=O)NC1(CN(C)C)CCC1 [Compound 6789, (2R)-N-[(1S)-1-[(1-{[(1S)-1-{[(1S)-1-({1-[(1-{[2-({1-[(dimethylamino)methyl]cyclobutyl}carbamoyl)ethyl]carbamoyl}-1-methylethyl)carbamoyl]-1-methylethyl}carbamoyl)-3-methylbutyl]carbamoyl}-3-methylbutyl]carbamoyl}-1-methylethyl)carbamoyl]-3-methylbutyl]-2-{[(2S)-1-(2-methyl-1,3-oxazole-4-carbonyl)pyrrolidin-2-yl]formamido}decanamide] ({Oxazole4CO(2-Me)}-P[dGly(nOct)]L[Aib]LL[Aib][Aib][βAla]-{NH(1-CH2NMe2-cBu)})	3.4 nM	4280 nM	65 nM
–	32 µg/mL (≈ 26.3 µM)	COCCN(CCNC(=O)CCNC(=O)C(C)(C)NC(=O)C(C)(C)NC(=O)[C@H](CC(C)C)NC(=O)[C@H](CC(C)C)NC(=O)C(C)(C)NC(=O)[C@H](CC(C)C)NC(=O)[C@H](CCC1CCCCC1)NC(=O)[C@@H]1CCCN1C(=O)c1coc(C)n1)CCOC [Compound 6791, (2S)-N-(1-{[(1S)-1-{[(1S)-1-({1-[(1-{[2-({2-[bis(2-methoxyethyl)amino]ethyl}carbamoyl)ethyl]carbamoyl}-1-methylethyl)carbamoyl]-1-methylethyl}carbamoyl)-3-methylbutyl]carbamoyl}-3-methylbutyl]carbamoyl}-1-methylethyl)-2-[(2S)-4-cyclohexyl-2-{[(2S)-1-(2-methyl-1,3-oxazole-4-carbonyl)pyrrolidin-2-yl]formamido}butanamido]-4-methylpentanamide] ({Oxazole4CO(2-Me)}-P[hCha]L[Aib]LL[Aib][Aib][βAla]-X1)	2.1 nM	8230 nM	179 nM

— patent US20240174714A1, “TREATMENT OF SKIN DISORDERS” (priority 2021, published 2024)
